Experimental data published in patent US8431523B2, “Oligomeric biosurfactants in dermatocosmetic compositions” (priority 2006, dated 2013).
Non-standard residues stand in square brackets, D forms with d. Residues, ends and D or L forms follow the SMILES beside them. *: point of attachment. Palmitoyl = CCCCCCCCCCCCCCCC(=O)*; Myristoyl = CCCCCCCCCCCCCC(=O)*

Experiments:
[1] = tested on: E. coli, P. aeruginosa, P. cepacia, S. aureus, including MRSA, S. epidermidis, and C. albicans; type: cell-based
Excerpt: By “antimicrobial” activity is meant the ability to inhibit the growth of at least one microbial organism selected from the group consisting E. coli, P. aeruginosa, S. aureus and C. albicans, as confirmed by optical density measurement (“OD”).
By “inhibition of growth” is meant reduction or absence of an increase greater than 5% in OD, a dimensionless measure of turbidity that is proportional to the amount of microbial cells present in a sample. For illustrative purposes, a OAB according to the present invention is added to a culture plate on which E. coli is present at a final concentration of about 5×10^3 cfu/ml. The plate is then incubated at about 37° C. for about 24 hours at which time the E. coli is resuspended by shaking, and OD is measured at about 600 nm. Thus, a reduction or absence of an increase greater than 5% in OD confirms the antimicrobial nature of the OAB with respect to E. coli.
Minimum inhibitory concentration (“MIC”) is a method well-known to those of skill in the art for expressing antimicrobial activity. A compound to be tested is serially diluted into growth medium, inoculated with culture and then incubated. The MIC is the lowest dilution of compound that inhibits or prevents growth of the target microorganism.
A further aspect of the present invention is directed to oligomeric acylated biosurfactants having a CMC of less than about 100 ppm in an aqueous environment of MEM Solution that reduces the surface tension of the MEM Solution to less than about […] where the OAB consists essentially of two to nine amino acid residues, at least one of which is charged, and has a MIC of less than 100 ppm for at least two of the following microorganisms: E. coli, P. aeruginosa, P. cepacia, S. aureus, including MRSA, S. epidermidis, and C. albicans. OABs meeting this criterion are selected from the group consisting of: Myr-GR-amide (P300); Myr-KK-amide (P315); Pal-HR-amide (P320); Myr-KK-acid (P347); SEQ ID NO 79 (P367); Myr-GHR-amide (P245); Pal-GHR-amide (P250); Myr-GRK-amide (P303); Pal-G-H—[R]^D-amide (P366); SEQ ID NO 84 (368); SEQ ID NO 58 (P370); SEQ ID NO 59 (P360); SEQ ID NO 60 (P373); SEQ ID NO 61 (P376); SEQ ID NO 62 (P369); SEQ ID NO 63 (P379); SEQ ID NO 64 (P381); SEQ ID NO 65 (P416); SEQ ID NO 66 (P383); and SEQ ID NO 67 (P289).

[2] = tested on: fibroblast proliferation; test: Cyquant Cell Proliferation Assay; type: cell-based
Method: For purposes of the present invention, proliferation is assessed using the Cyquant® Cell Proliferation Assay from Molecular Probes. This assay measures increased production of cellular nucleic acids that, in turn, results in increased binding of fluorescent dye.

[3] = tested on: P. cepacia; test: Minimum inhibitory concentration, P. cepacia; type: cell-based, Pseudomonas cepacia
Excerpt: By “antimicrobial” activity is meant the ability to inhibit the growth of at least one microbial organism selected from the group consisting E. coli, P. aeruginosa, S. aureus and C. albicans, as confirmed by optical density measurement (“OD”). By “inhibition of growth” is meant reduction or absence of an increase greater than 5% in OD, a dimensionless measure of turbidity that is proportional to the amount of microbial cells present in a sample. For illustrative purposes, a OAB according to the present invention is added to a culture plate on which E. coli is present at a final concentration of about 5×10^3 cfu/ml. The plate is then incubated at about 37° C. for about 24 hours at which time the E. coli is resuspended by shaking, and OD is measured at about 600 nm. Thus, a reduction or absence of an increase greater than 5% in OD confirms the antimicrobial nature of the OAB with respect to E. coli. Minimum inhibitory concentration (“MIC”) is a method well-known to those of skill in the art for expressing antimicrobial activity. A compound to be tested is serially diluted into growth medium, inoculated with culture and then incubated. The MIC is the lowest dilution of compound that inhibits or prevents growth of the target microorganism.

Row | Compound | MIC for at least two of the listed microorganisms [1] | increase fibroblast proliferation (qualitative) [2] | MIC(P. cepacia) [3] [ppm]
1 | CCCCCCCCCCCCCC(=O)NCC(=O)N[C@@H](Cc1c[nH]cn1)C(=O)N[C@@H](CCCNC(=N)N)C(N)=O [P245, Myr-GHR-amide] (Myristoyl-Gly-His-Arg-NH2) | less than 100 ppm |  | 
2 | CCCCCCCCCCCCCCCC(=O)NCC(=O)N[C@@H](Cc1c[nH]cn1)C(=O)N[C@@H](CCCNC(=N)N)C(N)=O [P250, Pal-GHR-amide] (Palmitoyl-Gly-His-Arg-NH2) | less than 100 ppm |  | 
3 | CCCCCCCCCCCCCC(=O)N[C@@H](CC(C)C)C(=O)N[C@@H](CCCCN)C(=O)N[C@@H](C)C(=O)N[C@@H](CCCCN)C(N)=O [P289, Myr-LKAK-amide] (Myristoyl-LKAK-NH2) | less than 100 ppm |  | 
4 | CCCCCCCCCCCCCC(=O)NCC(=O)N[C@@H](CCCNC(=N)N)C(N)=O [P300, Myr-GR-amide] (Myristoyl-Gly-Arg-NH2) | less than 100 ppm |  | 
5 | CCCCCCCCCCCCCC(=O)N[C@@H](C)C(=O)N[C@@H](Cc1c[nH]cn1)C(=O)N[C@@H](CCCNC(=N)N)C(N)=O [P322, Myr-AHR-amide] (Myristoyl-Ala-His-Arg-NH2) |  | increase fibroblast proliferation | ≤ 100
6 | CCCCCCCCCCCCCC(=O)N[C@@H](CCCNC(=N)N)C(=O)N[C@@H](CCCNC(=N)N)C(=O)N[C@@H](CCCNC(=N)N)C(N)=O [P342, Myr-RRR-amide] (Myristoyl-Arg-Arg-Arg-NH2) |  | increase fibroblast proliferation | ≤ 100
7 | CCCCCCCCCCCCCC(=O)N[C@@H](CCCCN)C(=O)N[C@@H](CCCCN)C(=O)N[C@@H](CCCCN)C(=O)O [P348, Myr-KKK-acid] |  | increase fibroblast proliferation | ≤ 100
8 | CCCCCCCCCCCCCC(=O)N[C@@H](CCCCN)C(=O)N[C@@H](CCCCN)C(=O)N[C@@H](C)C(=O)N[C@@H](CC(C)C)C(=O)N[C@@H](CCCCN)C(=O)O [P349, Myr-KKALK-acid] (Myristoyl-KKALK-OH) |  | increase fibroblast proliferation | ≤ 100
9 | CCCCCCCCCCCCCC(=O)N[C@@H](CCCCN)C(=O)N[C@@H](CC(C)C)C(=O)N[C@@H](C)C(=O)N[C@@H](CCCCN)C(=O)N[C@@H](CCCCN)C(=O)O [P351, Myr-KLAKK-acid] (Myristoyl-KLAKK-OH) |  | increase fibroblast proliferation | ≤ 100
10 | CCCCCCCCCCCCCC(=O)N[C@@H](CCCCN)C(=O)N[C@@H](CCCCN)C(=O)N[C@@H](C)C(=O)N[C@@H](CC(C)C)C(=O)O [P362, Myr-KKAL-acid] (Myristoyl-KKAL-OH) |  | increase fibroblast proliferation | ≤ 100
11 | CCCCCCCCCCCCCC(=O)N[C@@H](CC(C)C)C(=O)N[C@@H](C)C(=O)N[C@@H](CCCCN)C(=O)N[C@@H](CCCCN)C(=O)O [P363, Myr-LAKK-acid] (Myristoyl-LAKK-OH) |  | increase fibroblast proliferation | ≤ 100
12 | CCCCCCCCCCCCCC(=O)N[C@H](C(=O)N[C@@H](C)C(=O)N[C@@H](CCCCN)C(=O)N[C@@H](CCCCN)C(N)=O)[C@@H](C)CC [P371, Myr-IAKK-amide] (Myristoyl-IAKK-NH2) |  | increase fibroblast proliferation | ≤ 100
13 | CCCCCCCCCCCCCC(=O)N[C@@H](CC(C)C)C(=O)N[C@@H](CO)C(=O)N[C@@H](CCCCN)C(=O)N[C@@H](CCCCN)C(N)=O [P372, Myr-LSKK-amide] (Myristoyl-LSKK-NH2) |  | increase fibroblast proliferation | ≤ 100
14 | CCCCCCCCCCCCCC(=O)N[C@@H](CCCCN)C(=O)N[C@@H](CCCCN)C(=O)NCC(=O)N[C@@H](CC(C)C)C(=O)N[C@@H](CCCCN)C(N)=O [P374, Myr-KKGLK-amide] (Myristoyl-KKGLK-NH2) |  | increase fibroblast proliferation | ≤ 100
15 | CCCCCCCCCCCCCC(=O)N[C@@H](CCCCN)C(=O)N[C@@H](CCCCN)C(=O)NCC(=O)N[C@H](C(=O)N[C@H](CCCCN)C(N)=O)[C@@H](C)CC [P390, Myr-KKG1-[K]^D-amide] (Myristoyl-KKGI[dK]-NH2) |  | increase fibroblast proliferation | ≤ 100
16 | CCCCCCCCCCCCCC(=O)N[C@@H](CCCCN)C(=O)N[C@@H](CCCCN)C(=O)NCC(=O)N[C@@H](CC(C)C)C(=O)N[C@H](CCCCN)C(N)=O [P394, Myr-KKGL-[K]^D-amide] (Myristoyl-KKGL[dK]-NH2) |  | increase fibroblast proliferation | ≤ 100
17 | CCCCCCCCCCCCCC(=O)N[C@@H](CCCCN)C(=O)N[C@@H](CCCCN)C(=O)N[C@@H](CO)C(=O)N[C@@H](CC(C)C)C(=O)N[C@H](CCCCN)C(N)=O [P395, Myr-KKSL-[K]^D-amide] (Myristoyl-KKSL[dK]-NH2) |  | increase fibroblast proliferation | ≤ 100
18 | CCCCCCCCCCCCCC(=O)N[C@@H](CCCCN)C(=O)N[C@@H](CC(C)C)C(=O)N[C@@H](C)C(=O)N[C@@H](CCCCN)C(=O)N[C@@H](CCCCN)C(=O)N[C@H](CC(C)C)C(N)=O [P396, Myr-KLAKK-[L]^D-amide] (Myristoyl-KLAKK[dL]-NH2) |  | increase fibroblast proliferation | ≤ 100
19 | CCCCCCCCCCCCCC(=O)NCC(=O)NCC(=O)N[C@@H](CCCCN)C(=O)N[C@@H](CCCNC(=N)N)C(N)=O [P399, Myr-GGKR-amide] (Myristoyl-GGKR-NH2) |  | increase fibroblast proliferation | ≤ 100
20 | CCCCCCCCCCCCCC(=O)N[C@@H](C)C(=O)N[C@@H](C)C(=O)N[C@@H](CCCCN)C(=O)N[C@@H](CCCNC(=N)N)C(N)=O [P400, Myr-AAKR-amide] (Myristoyl-AAKR-NH2) |  | increase fibroblast proliferation | ≤ 100
21 | CCCCCCCCCCCCCC(=O)N[C@@H](C)C(=O)N[C@@H](CCCCN)C(=O)N[C@@H](CCCCN)C(=O)NCC(=O)N[C@@H](CC(C)C)C(=O)N[C@H](CCCCN)C(N)=O [P402, Myr-AKKGL-[K]^D-amide] (Myristoyl-AKKGL[dK]-NH2) |  | increase fibroblast proliferation | ≤ 100
22 | CCCCCCCCCCCCCC(=O)NCC(=O)N[C@@H](CCCCN)C(=O)N[C@@H](CCCCN)C(=O)N[C@@H](C)C(=O)N[C@@H](CC(C)C)C(=O)N[C@H](CCCCN)C(N)=O [P404, Myr-GKKAL-[K]^D-amide] (Myristoyl-GKKAL[dK]-NH2) |  | increase fibroblast proliferation | ≤ 100
23 | CCCCCCCCCCCCCC(=O)N[C@@H](CO)C(=O)N[C@@H](CCCCN)C(=O)N[C@@H](CCCCN)C(=O)N[C@@H](C)C(=O)N[C@@H](CC(C)C)C(=O)N[C@H](CCCCN)C(N)=O [P408, Myr-SKKAL-[K]^D-amide] (Myristoyl-SKKAL[dK]-NH2) |  | increase fibroblast proliferation | ≤ 100
